Data taken from patent publication US11065253B2, “Arylquinazolines” (Merck Patent GmbH, priority 2013, dated 2021).
Where two headings read alike, the source gives them in different places.

System: phospho-serine 2056 DNA-PK in HCT116 cells
Test: DNA-PK phosphorylation at serine 2056 (cellular), ELISA in bleomycin-treated HCT116 cells
Assay type: cell-based
Settings: bleomycin-treated HCT116 cells, class symbols A-D, read-out: IC50 pDNA-PK
Procedure, shortened: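 Test compounds and bleomycin (10 μM) are added to adherent HCT116 cells for 6 h. Detection uses an HRP-based chemiluminescent ELISA, with phospho-DNA-PK signals standardised to total protein.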

[1] = Homo sapiens, HCT-116, phospho-serine 2056 DNA-PK

SMILES: C#CC(O)(c1ccc(OC)nn1)c1cc(-c2ncnc3cc(N4CCOCC4)ccc23)c(F)cc1Cl (stereo not drawn) [Example 122, 1-[2-Chloro-4-fluoro-5-(7-morpholin-4-yl-quinazolin-4-yl)-phenyl]-1-(6-methoxy-pyridazin-3-yl)-prop-2-yn-1-ol]
- IC50 [1]: 0.5 to 5 µM

SMILES: COc1ccc(C(O)(c2cc(-c3ncnc4cc(N5CCOCC5)ccc34)c(F)cc2Cl)C(F)F)nn1 (stereo not drawn) [Example 123, 1-[2-Chloro-4-fluoro-5-(7-morpholin-4-yl-quinazolin-4-yl)-phenyl]-2,2-difluoro-1-(6-methoxy-pyridazin-3-yl)-ethanol]
- IC50 [1]: 10 to 30 µM

SMILES: COc1ccc(C(O)c2cc(-c3ncnc4cc(N5CCOCC5)ccc34)c(F)cc2F)c(F)c1 (stereo not drawn) [Example 124, [2,4-Difluoro-5-(7-morpholin-4-yl-quinazolin-4-yl)-phenyl]-(2-fluoro-4-methoxy-phenyl)methanol]
- IC50 [1]: 0.5 to 5 µM

SMILES: COc1ccc(C(C)(O)c2cc(-c3ncnc4cc(N5CCOCC5)ccc34)c(F)cc2Cl)nn1 (stereo not drawn) [Example 125, 1-[2-Chloro-4-fluoro-5-(7-morpholin-4-yl-quinazolin-4-yl)-phenyl]-1-(6-methoxy-pyridazin-3-yl)-ethanol]
- IC50 [1]: 10 to 30 µM

SMILES: COc1ccc(C(O)c2cc(-c3nc(Cl)nc4cc(N5CCOCC5)ccc34)c(F)cc2Cl)nn1 (stereo not drawn) [Example 132, [2-Chloro-5-(2-chloro-7-morpholin-4-yl-quinazolin-4-yl)-4-fluorophenyl]-(6-methoxy-pyridazin-3-yl)-methanol]
- IC50 [1]: 0.5 to 5 µM

SMILES: CN(C)CCOc1ccc(C(O)c2ccc(F)c(-c3ncnc4cc(N5CCOCC5)ccc34)c2)nn1 (stereo not drawn) [Example 133, [6-(2-Dimethyl-amino-ethoxy)-pyridazin-3-yl]-[4-fluoro-3-(7-morpholin-4-yl-quinazolin-4-yl)-phenyl]methanol]
- IC50 [1]: 5 to 10 µM

SMILES: CCOc1ccc(C(O)c2ccc(F)c(-c3ncnc4cc(N5CCOCC5)ccc34)c2)nn1 (stereo not drawn) [Example 134, (6-Ethoxy-pyridazin-3-yl)-[4-fluoro-3-(7-morpholin-4-yl-quinazolin-4-yl)-phenyl] methanol]
- IC50 [1]: 0.5 to 5 µM

SMILES: COc1ccc([C@H](O)c2cc(-c3ncnc4cc(N5CCOCC5)ccc34)c(F)cc2Cl)nn1 [Example 135, (R)-[2-Chloro-4-fluoro-5-(7-morpholin-4-yl-quinazolin-4-yl)-phenyl]-(6-methoxy-pyridazin-3-yl)-methanol]
- IC50 [1]: 10 to 30 µM

SMILES: COc1ccc([C@@H](O)c2cc(-c3ncnc4cc(N5CCOCC5)ccc34)c(F)cc2Cl)nn1 [Example 136, (S)-[2-Chloro-4-fluoro-5-(7-morpholin-4-yl-quinazolin-4-yl)-phenyl]-(6-methoxy-pyridazin-3-yl)-methanol]
- IC50 [1]: < 0.5 µM

SMILES: COc1ccc(C(O)c2cc(-c3ncnc4cc(N5CCOCC5)ccc34)c(F)cc2Cl)nn1 (stereo not drawn) [Example 137, [2-Chloro-4-fluoro-5-(7-morpholin-4-ylquinazolin-4-yl)-phenyl]-(6-methoxy-pyridazin-3-yl)-methanol]
- IC50 [1]: 0.5 to 5 µM

SMILES: OC(c1ccc(F)c(-c2ncnc3cc(C4=CCOCC4)ccc23)c1)c1nccs1 (stereo not drawn) [Example 139, {3-[7-(3,6-Dihydro-2H-pyran-4-yl)-quinazolin-4-yl]-4-fluoro-phenyl}-thiazol-2-ylmethanol]
- IC50 [1]: 10 to 30 µM

SMILES: OC(c1ccc(F)c(-c2ncnc3cc(N4CCOCC4)ncc23)c1)c1nccs1 (stereo not drawn) [Example 140, [4-Fluoro-3-(7-morpholin-4-yl-pyrido[4,3-d}-pyrimidin-4-yl)-phenyl]thiazol-2-yl-methanol]
- IC50 [1]: 10 to 30 µM

SMILES: OCc1csc(C(O)c2cc(-c3ncnc4cc(N5CCOCC5)ncc34)c(F)cc2Cl)n1 (stereo not drawn) [Example 141, [2-Chloro-4-fluoro-5-(7-morpholin-4-yl-pyrido[4,3-d}-pyrimidin-4-yl)-phenyl]-(4-hydroxymethyl-thiazol-2-yl)-methanol]
- IC50 [1]: 10 to 30 µM

SMILES: OCc1csc(C(O)c2cc(-c3ncnc4cc(N5CCOCC5)ccc34)c(F)cc2Cl)n1 (stereo not drawn) [Example 142, [2-Chloro-4-fluoro-5-(7-morpholin-4-yl-quinazolin-4-yl)-phenyl]-(4-hydroxymethyl-thiazol-2-yl)-methanol]
- IC50 [1]: 0.5 to 5 µM

SMILES: CNCc1csc(C(O)c2cc(-c3ncnc4cc(N5CCOCC5)ccc34)c(F)cc2Cl)n1 (stereo not drawn) [Example 143, [2-Chloro-4-fluoro-5-(7-morpholin-4-yl-quinazolin-4-yl)-phenyl]-(4-methylamino-methyl-thiazol-2-yl)-methanol]
- IC50 [1]: 5 to 10 µM

SMILES: OC(c1ccc(F)c(-c2ncnc3cc(N4CCOCC4)sc23)c1)c1nccs1 (stereo not drawn) [Example 145, [4-Fluoro-3-(6-morpholin-4-yl-thieno[3,2-d}-pyrimidin-4-yl)-phenyl]thiazol-2-yl-methanol]
- IC50 [1]: 0.5 to 5 µM

SMILES: OC(c1ccc(F)c(-c2ncnc3cc(N4CCOCC4)sc23)c1)c1nccs1 (stereo not drawn) [Example 146, [4-Fluoro-3-(6-morpholin-4-yl-thieno[3,2-d}-pyrimidin-4-yl)-phenyl]thiazol-2-yl-methanol]
- IC50 (phospho-serine 2056 DNA-PK): 0.5 to 5 µM

SMILES: OC(c1cccc(-c2ncnc3cc(N4CCOCC4)ccc23)c1)c1nccs1 (stereo not drawn) [Example 150, [3-(7-Morpholin-4-ylquinazolin-4-yl)-phenyl]thiazol-2-yl-methanol]
- IC50 [1]: 5 to 10 µM

SMILES: CC(O)(c1cncc(-c2ncnc3cc(N4CCOCC4)ccc23)c1)c1nccs1 (stereo not drawn) [Example 152, 1-[5-(7-Morpholin-4-ylquinazolin-4-yl)-pyridin-3-yl]-1-thiazol-2-ylethanol]
- IC50 [1]: 10 to 30 µM

SMILES: OC(c1cccc(-c2ncnc3cc(N4CCOCC4)ccc23)c1)(c1nccs1)C(F)(F)F (stereo not drawn) [Example 159, 2,2,2-Trifluoro-1-[3-(7-morpholin-4-yl-quinazolin-4-yl)-phenyl]-1-thiazol-2-ylethanol]
- IC50 [1]: 10 to 30 µM

SMILES: CC(O)(c1ccc(F)c(-c2ncnc3cc(N4CCOCC4)ccc23)c1)c1nccs1 (stereo not drawn) [Example 163, 1-[4-Fluoro-3-(7-morpholin-4-yl-quinazolin-4-yl)-phenyl]-1-thiazol-2-ylethanol]
- IC50 [1]: 10 to 30 µM

SMILES: OC(c1cc(F)cc(-c2ncnc3cc(N4CCOCC4)ccc23)c1)c1nccs1 (stereo not drawn) [Example 169, [3-Fluoro-5-(7-morpholin-4-yl-quinazolin-4-yl)-phenyl]thiazol-2-yl-methanol]
- IC50 [1]: 10 to 30 µM

SMILES: OC(c1nccs1)c1cc(-c2ncnc3cc(N4CCOCC4)ccc23)ccc1F (stereo not drawn) [Example 170, [2-Fluoro-5-(7-morpholin-4-yl-quinazolin-4-yl)-phenyl]thiazol-2-yl-methanol]
- IC50 [1]: 5 to 10 µM

SMILES: OC(c1cc(F)c(F)c(-c2ncnc3cc(N4CCOCC4)ccc23)c1)c1nccs1 (stereo not drawn) [Example 171, [3,4-Difluoro-5-(7-morpholin-4-yl-quinazolin-4-yl)-phenyl]thiazol-2-yl-methanol]
- IC50 [1]: 0.5 to 5 µM

SMILES: OC(c1cccc(-c2ncnc3cc(N4CCOCC4)ccc23)c1)(c1nccs1)C(F)(F)F (stereo not drawn) [Example 172, 2,2,2-Trifluoro-1-[3-(7-morpholin-4-yl-quinazolin-4-yl)-phenyl]-1-thiazol-2-ylethanol]
- IC50 [1]: 10 to 30 µM

SMILES: COC(c1ccc(F)c(-c2ncnc3cc(N4CCOCC4)ccc23)c1)c1nccs1 (stereo not drawn) [Example 177, 4-[2-Fluoro-5-(-methoxythiazol-2-ylmethyl)phenyl]-7-morpholin-4-yl-quinazoline]
- IC50 [1]: 10 to 30 µM

SMILES: OC(c1cc(F)c(F)c(-c2ncnc3cc(N4CCOCC4)ccc23)c1)c1nccs1 (stereo not drawn) [Example 178, [3,4-Difluoro-5-(7-morpholin-4-yl-quinazolin-4-yl)-phenyl]thiazol-2-yl-methanol]
- IC50 (phospho-serine 2056 DNA-PK): 0.5 to 5 µM

SMILES: OC(c1cc(F)c(F)c(-c2ncnc3cc(N4CCOCC4)ccc23)c1)c1nccs1 (stereo not drawn) [Example 179, [3,4-Difluoro-5-(7-morpholin-4-yl-quinazolin-4-yl)-phenyl]thiazol-2-yl-methanol]
- IC50 (phospho-serine 2056 DNA-PK): 0.5 to 5 µM

SMILES: Cc1csc(C(O)c2cc(-c3ncnc4cc(N5CCOCC5)ccc34)c(F)cc2Cl)n1 (stereo not drawn) [Example 181, [2-Chloro-4-fluoro-5-(7-morpholin-4-yl-quinazolin-4-yl)-phenyl]-(4-methyl-thiazol-2-yl)-methanol]
- IC50 [1]: 0.5 to 5 µM

SMILES: OC(c1cccc(-c2ncnc3cc(N4CCOCC4)sc23)c1)c1nccs1 (stereo not drawn) [Example 182, [3-(6-Morpholin-4-ylthieno[3,2-d}-pyrimidin-4-yl)-phenyl]thiazol-2-yl-methanol]
- IC50 [1]: 5 to 10 µM

SMILES: OCc1csc([C@@H](O)c2cc(-c3ncnc4cc(N5CCOCC5)ccc34)c(F)cc2Cl)n1 [Example 185, (S)-[2-Chloro-4-fluoro-5-(7-morpholin-4-yl-quinazolin-4-yl)-phenyl]-(4-hydroxymethyl-thiazol-2-yl)-methanol]
- IC50 [1]: 0.5 to 5 µM

SMILES: OCc1csc([C@H](O)c2cc(-c3ncnc4cc(N5CCOCC5)ccc34)c(F)cc2Cl)n1 [Example 186, (R)-[2-Chloro-4-fluoro-5-(7-morpholin-4-yl-quinazolin-4-yl)-phenyl]-(4-hydroxymethyl-thiazol-2-yl)-methanol]
- IC50 [1]: 5 to 10 µM

SMILES: OCc1csc(C(O)c2cc(-c3ncnc4cc(N5C6CCC5COC6)ccc34)c(F)cc2Cl)n1 (stereo not drawn) [Example 187, {2-Chloro-4-fluoro-5-[7-(3-oxa-8-aza-bicyclo[3.2.1]oct-8-yl)quinazolin-4-yl]-phenyl}-(4-hydroxy-methylthiazol-2-yl)-methanol]
- IC50 [1]: 10 to 30 µM

SMILES: Cn1cc(C(O)c2ccc(F)c(-c3ncnc4cc(N5CCOCC5)ccc34)c2)cn1 (stereo not drawn) [Example 191, [4-Fluoro-3-(7-morpholin-4-yl-quinazolin-4-yl)-phenyl]-(1-methyl-1H-pyrazol-4-yl)-methanol]
- IC50 [1]: 10 to 30 µM

SMILES: Cc1nc(C(O)c2cnc(F)c(-c3ncnc4cc(N5CCOCC5)ncc34)c2)sc1C (stereo not drawn) [Example 196, (4,5-Dimethyl-thiazol-2-yl)-[6-fluoro-5-(7-morpholin-4-yl-pyrido[4,3-d}-pyrimidin-4-yl)-pyridin-3-yl]-methanol]
- IC50 [1]: 10 to 30 µM

SMILES: CC(C)n1cc(C(O)c2ccc(F)c(-c3ncnc4cc(N5CCOCC5)ccc34)c2)cn1 (stereo not drawn) [Example 197, [4-Fluoro-3-(7-morpholin-4-yl-quinazolin-4-yl)-phenyl]-(1-isopropyl-1 H-pyrazol-4-yl)-methanol]
- IC50 [1]: 5 to 10 µM
